Results reported in patent publication US20030013637A1, “Novel anti-autoimmune composition by inhibition of GRF action” (priority 2001, published 2003).

System: EAE-induced PLSJLF1/J mice
Assay: Effect of GRF antagonist administration on experimental autoimmune encephalomyelitis (EAE) induced by rabbit MBP immunization and pertussis toxin
Format: in vivo
Description: In order to investigate the affect of the administration of GRF antagonist on the onset of autoimmune disease, studies were conducted using experimental autoimmune encephalomyelitis (EAE), which is an experimental animal model of human multiple sclerosis.
Wild mice (PLSJLF1/J) (females purchased from The Jackson Laboratory) were used in the experiment. The mice were purchased at five weeks of age, and were reared under artificial lighting from 8:00 am to 8:00 pm every day throughout the experiment. The animals were allowed free access to water and solid food (CE-2; Japan CLEA).
First, these mice (total ten animals) were sensitized by subcutaneous administration in the femoral area of 100 μL of an emulsion in a 1:1 mixture of complete Freund's adjuvant (CFA) (Difco Co.) to 2 mg/mL rabbit myelin basic protein (MBP) (manufactured by Sigma Co.) dissolved in physiological saline (manufactured by Otsuka Pharmaceutical Co. Ltd.). Pertussis toxin (manufactured by List Biological Laboratories) (200 ng) dissolved in physiological saline (manufactured by Otsuka Pharmaceutical Co. Ltd.) was intra-abdominally administered immediately after and two days after sensitization. In this manner, experimental autoimmune encephalomyelitis (EAE) was induced.
Next, GRF antagonist was administered in compliance with the following procedures. The mice (total of ten animals) that had been MBP sensitized and administered pertussis toxin were divided into two groups. One group (five animals) was subcutaneously administered in the dorsal neck region 30 μg of GRF antagonist (MZ-4-71; manufactured by the US company Calbiochem Novabiochem) per mouse once per day from the eighth to 15th day after MBP sensitization (MZ-4-71 administration group). The other group (five animals) was subcutaneously administered in the dorsal neck region an equal amount of physiological saline in the same way as a control once per day from the eighth to 15th day after MBP sensitization (saline administration group). All animals were allowed free access to food and water throughout the entire rearing period including during the aforementioned experimental period.
The body weight of each mouse was measured every day. The EAE symptoms were observed. and EAE symptom scores were recorded based on the following criteria.
0: No symptoms, 1: Paralysis of tail, 2: Mild paralysis of rear legs, 3: Moderate to severe paralysis of rear legs or mild paralysis of front legs, or both, 4: Complete paralysis of rear legs or moderate to severe paralysis of front legs, or both, 5: Paralysis of all four limbs or struggling with death, 6: Death

[Ibu^0, D-Arg^2, Phe(4-Cl)^6, Abu^15, Nle^27]hGHRH-(1-28)Agm [MZ-4-71]
beginning of EAE onset (PLSJLF1/J mice, 30 μg per mouse s.c. once per day, day 8 to 15 after MBP sensitization, FIG. 2(A)): 11 post-sensitization day | beginning of flare-ups (after remission, 30 μg per mouse s.c. once per day, day 8-15): 20 post-sensitization day | mean EAE score (beginning post-sensitization day 17, remissions in all the mice, 30 μg per mouse s.c. once per day, day 8-15): 0 | mean EAE score (post-sensitization day 13, 30 μg per mouse s.c. once per day, day 8-15, score scale 0-6): 0.3 | peak mean EAE score (post-sensitization day 23, peak over subsequent observation period, 30 μg per mouse s.c. once per day, day 8-15): 2.2 | EAE onset percentage (post-sensitization day 26, 30 μg per mouse s.c. once per day, day 8-15, FIG. 2(B)): not more than 60% | EAE scores compared to the saline administration group (time course of mean values, FIG. 2(A)): lower EAE scores | beginning of EAE onset compared to the saline administration group (time course of onset percentage, FIG. 2(B)): a delay in the beginning of EAE onset
